According to PubChem BioAssay AID2060484 (Molecular Pharmacology Branch, DTP, NCI, 2025):
Where “and” joins values, the source holds several entries; their conditions need not be identical. Equal values may be shown once.

Tested on: SUM149PT spheroids with HUVEC/MSC, viability
Assay: Anticancer human tumor SUM149PT cell line growth inhibition [GQUAD];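 also: spheroids exposed to drugs for seven days before readout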;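 as to viability, T/C: percent viability relative to DMSO vehicle control taken as 100%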
Conditions: for viability, T/C: stronger effect = lower value
Source text: DNA G-quadruplex Stabilizer Agents in Combinations in Complex Spheroids
A high-throughput screen of multi-cell type tumor spheroids was designed to identify active combinations of DNA G-quadruplex stabilizer agents and targeted small molecules. Complex spheroids include a stromal component modeled by human endothelial cells (HUVEC) and fibroblasts modeled by human mesenchymal stem cells (MSCs). The concentration ranges selected for each drug and investigational agent were based upon clinically achievable concentrations if the clinical Cmax of the agent was known.
Compounds. The drugs and investigational agents: pidnarulex (CX-5461; NSC782164), APTO-253 (NSC789042), BRACO-19 (NSC847499), peposertib (NSC802822), ceralasertib (NSC780249), elimusertib (NSC800525), camonsertib (NSC841442), AZD-1390 (NSC803789), olaparib (NSC753686), talazoparib (NSC767125), ART-558 (NSC835418), sotorasib (NSC818433), MRTX-1133 (NSC836407), SN-38 (NSC673596), topotecan (NSC609699), etoposide (NSC141540), doxorubicin (NSC123127), gemcitabine (NSC613327), 5-fluorouracil (NSC19893), paclitaxel (NSC125973), vemurafenib (NSC761431), panobinostat (NSC761190), R-306465 (JNJ-16241199; NSC773264), adavosertib (NSC754352), TP-3654 (NSC805149), carboplatin (NSC241240), KSQ-4279 (NSC840948), and staurosporine (NSC755774) were obtained from the National Cancer Institute (NCI) Developmental Therapeutics Program Chemical Repository (34). The FDA-approved anticancer drug set is available from the NCI Developmental Therapeutics Program. […] The stock solutions were prepared in dimethyl sulfoxide (DMSO, Sigma-Aldrich, St. Louis, MO, cat. D2650) at 800-fold the tested concentration and stored at -70 degrees C prior to their use. All drugs and investigational agents were tested over a range starting from a high concentration at or near the clinical Cmax and decreasing in half-log increments. If the clinical Cmax for an agent had not been determined, the highest concentration tested was 10 microM.
2.3 Cell Culture. All cells were maintained in an incubator at 37 degrees C and 5% CO2 with 95% humidity. The PDC lines were cultured according to standard operating procedures established by the NCI PDMR. All PDCs were thawed and cultured in Matrigel-coated flasks prepared with a working solution of 1X Ham's F-12 nutrient mix, without supplementation (Invitrogen, cat. 11765054), 100 U/mL penicillin-streptomycin (Invitrogen, cat. 15140122), and 2.5% Matrigel (Corning Inc., cat. 354248) for the first three passages. The 857933-349-R-J2-PDC line was cultured in 6C/Colon 1B media, which includes advanced DMEM/F-12 (Thermo Fisher Scientific, cat. 12634028), 10 mM HEPES (Thermo Fisher Scientific, cat. 15630080), 1X GlutaMAX supplement (Thermo Fisher Scientific, cat. 35050061), 0.1 mg/mL primocin (InvivoGen, cat. ant-pm-2), 10% defined fetal bovine serum, heat inactivated (HyClone Laboratories Inc., cat. SH30070.03HI), 50% L-WRN conditioned media (ATCC, cat. CRL-3276), 1.25 mM N-Acetyl-L-cysteine (Sigma-Aldrich, cat. A9165), 10 mM nicotinamide (Sigma-Aldrich, cat. N0636), 1X B-27 supplement (Thermo Fisher Scientific, cat. 17504044), 1X N-2 supplement (Thermo Fisher Scientific, cat. 17502048), 10 microM Y-27632 dihydrochloride (Tocris Bioscience, cat. 1254), and 50 ng/mL human EGF recombinant protein (Thermo Fisher Scientific, cat. PHG0311). The 485176-168-R4-J1-PDC line was cultured in Panc media, which includes all 6C/Colon 1B media components plus 100 ng/mL human FGF-10 (Thermo Fisher Scientific, cat. 100-26), 500 nM SB-431542 (Selleckchem, cat. S1067), and gastrin (Tocris, cat. 3006).
[…]

Cc1cccc(N(C)C(=O)C2C(O)CCN2c2nc(C)cc(C(F)(F)F)c2C#N)c1 (centres undefined) + Cc1[nH]c2ccc(F)cc2c1-c1nc2c3cccnc3c3ncccc3c2[nH]1
IC50 (curve of first compound, second compound 0.0316 µM): > 10 µM
IC50 (curve of first compound, second compound 0.1 µM): > 10 µM
IC50 (curve of first compound, second compound 0.316 µM): > 10 µM
IC50 (curve of first compound, second compound 1 µM): > 10 µM
IC50 (curve of first compound, second compound 3.16 µM): > 10 µM
IC50 (curve of first compound, second compound 10 µM): > 10 µM
viability, T/C (second compound 0.0316 µM, first compound 0.0316 µM): 98.2%
viability, T/C (second compound 0.0316 µM, first compound 0.1 µM): 92.6%
viability, T/C (second compound 0.0316 µM, first compound 0.316 µM): 105%
viability, T/C (second compound 0.0316 µM, first compound 1 µM): 95.4%
viability, T/C (second compound 0.0316 µM, first compound 3.16 µM): 96.5%
viability, T/C (second compound 0.0316 µM, first compound 10 µM): 92.6%
viability, T/C (second compound 0.1 µM, first compound 0.0316 µM): 102%
viability, T/C (second compound 0.1 µM, first compound 0.1 µM): 101%
viability, T/C (second compound 0.1 µM, first compound 0.316 µM): 104%
viability, T/C (second compound 0.1 µM, first compound 1 µM): 96.7%
viability, T/C (second compound 0.1 µM, first compound 3.16 µM): 98%
viability, T/C (second compound 0.1 µM, first compound 10 µM): 99%
viability, T/C (second compound 0.316 µM, first compound 0.0316 µM): 97.8%
viability, T/C (second compound 0.316 µM, first compound 0.1 µM): 94.7%
viability, T/C (second compound 0.316 µM, first compound 0.316 µM): 96%
viability, T/C (second compound 0.316 µM, first compound 1 µM): 97.3%
viability, T/C (second compound 0.316 µM, first compound 3.16 µM): 96.1%
viability, T/C (second compound 0.316 µM, first compound 10 µM): 95.5%
viability, T/C (second compound 1 µM, first compound 0.0316 µM): 97.3%
viability, T/C (second compound 1 µM, first compound 0.1 µM): 102%
viability, T/C (second compound 1 µM, first compound 0.316 µM): 91.1%
viability, T/C (second compound 1 µM, first compound 1 µM): 98%
viability, T/C (second compound 1 µM, first compound 3.16 µM): 91.2%
viability, T/C (second compound 1 µM, first compound 10 µM): 108%
viability, T/C (second compound 3.16 µM, first compound 0.0316 µM): 96.5%
viability, T/C (second compound 3.16 µM, first compound 0.1 µM): 102%
viability, T/C (second compound 3.16 µM, first compound 0.316 µM): 105%
viability, T/C (second compound 3.16 µM, first compound 1 µM): 105%
viability, T/C (second compound 3.16 µM, first compound 3.16 µM): 106%
viability, T/C (second compound 3.16 µM, first compound 10 µM): 102%
viability, T/C (second compound 10 µM, first compound 0.0316 µM): 92.5%
viability, T/C (second compound 10 µM, first compound 0.1 µM): 93%
viability, T/C (second compound 10 µM, first compound 0.316 µM): 105%
viability, T/C (second compound 10 µM, first compound 1 µM): 84.8%
viability, T/C (second compound 10 µM, first compound 3.16 µM): 103%
viability, T/C (second compound 10 µM, first compound 10 µM): 96.7%

O=C(NO)c1cnc(N2CCN(S(=O)(=O)c3ccc4ccccc4c3)CC2)nc1
viability, T/C (compound 0.0316 µM): 97.1% and 108% and 102%
viability, T/C (compound 0.1 µM): 86.9% and 95.1% and 86.5%
viability, T/C (compound 0.316 µM): 48.5% (2×) and 56.6%
viability, T/C (compound 1 µM): 0.52% and 2.34% and 1.78%
viability, T/C (compound 3.16 µM): 0.32% and 0.27% and 0.08%
viability, T/C (compound 10 µM): 0.29% and 0.71%
IC50 (curve of compound): 0.295 µM and 0.355 µM and 0.286 µM
